Patent US20250114345A1, “COMPOUNDS AND COMPOSITIONS AS CBP/P300 DEGRADERS AND USES THEREOF” (Oncopia Therapeutics, Inc. d/b/a/ SK Life Science Labs, priority 2023, published 2025)

Molecular target: T1, p300 (Homo sapiens, UniProt Q09472)
T1 construct: host or cells: A549 P300 HiBit cells
Test: P300 degradation, HiBit technology in A549 P300 HiBit cells (2 h)
Assay type: cell-based
Conditions: 2 hrs post treatment; for Dmax: A549, A549 P300 HiBit cells; for DC50: A549 P300 HiBit cells
Outline: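 HiBiT knock-in A549 cells received compound in serial dilution at 37 °C under 5% CO2. Remaining tagged protein was quantified by lytic HiBiT luminescence after 10 min shaking at room temperature, yielding potency and maximal degradation.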

T1 sequence (Q09472 whole entry): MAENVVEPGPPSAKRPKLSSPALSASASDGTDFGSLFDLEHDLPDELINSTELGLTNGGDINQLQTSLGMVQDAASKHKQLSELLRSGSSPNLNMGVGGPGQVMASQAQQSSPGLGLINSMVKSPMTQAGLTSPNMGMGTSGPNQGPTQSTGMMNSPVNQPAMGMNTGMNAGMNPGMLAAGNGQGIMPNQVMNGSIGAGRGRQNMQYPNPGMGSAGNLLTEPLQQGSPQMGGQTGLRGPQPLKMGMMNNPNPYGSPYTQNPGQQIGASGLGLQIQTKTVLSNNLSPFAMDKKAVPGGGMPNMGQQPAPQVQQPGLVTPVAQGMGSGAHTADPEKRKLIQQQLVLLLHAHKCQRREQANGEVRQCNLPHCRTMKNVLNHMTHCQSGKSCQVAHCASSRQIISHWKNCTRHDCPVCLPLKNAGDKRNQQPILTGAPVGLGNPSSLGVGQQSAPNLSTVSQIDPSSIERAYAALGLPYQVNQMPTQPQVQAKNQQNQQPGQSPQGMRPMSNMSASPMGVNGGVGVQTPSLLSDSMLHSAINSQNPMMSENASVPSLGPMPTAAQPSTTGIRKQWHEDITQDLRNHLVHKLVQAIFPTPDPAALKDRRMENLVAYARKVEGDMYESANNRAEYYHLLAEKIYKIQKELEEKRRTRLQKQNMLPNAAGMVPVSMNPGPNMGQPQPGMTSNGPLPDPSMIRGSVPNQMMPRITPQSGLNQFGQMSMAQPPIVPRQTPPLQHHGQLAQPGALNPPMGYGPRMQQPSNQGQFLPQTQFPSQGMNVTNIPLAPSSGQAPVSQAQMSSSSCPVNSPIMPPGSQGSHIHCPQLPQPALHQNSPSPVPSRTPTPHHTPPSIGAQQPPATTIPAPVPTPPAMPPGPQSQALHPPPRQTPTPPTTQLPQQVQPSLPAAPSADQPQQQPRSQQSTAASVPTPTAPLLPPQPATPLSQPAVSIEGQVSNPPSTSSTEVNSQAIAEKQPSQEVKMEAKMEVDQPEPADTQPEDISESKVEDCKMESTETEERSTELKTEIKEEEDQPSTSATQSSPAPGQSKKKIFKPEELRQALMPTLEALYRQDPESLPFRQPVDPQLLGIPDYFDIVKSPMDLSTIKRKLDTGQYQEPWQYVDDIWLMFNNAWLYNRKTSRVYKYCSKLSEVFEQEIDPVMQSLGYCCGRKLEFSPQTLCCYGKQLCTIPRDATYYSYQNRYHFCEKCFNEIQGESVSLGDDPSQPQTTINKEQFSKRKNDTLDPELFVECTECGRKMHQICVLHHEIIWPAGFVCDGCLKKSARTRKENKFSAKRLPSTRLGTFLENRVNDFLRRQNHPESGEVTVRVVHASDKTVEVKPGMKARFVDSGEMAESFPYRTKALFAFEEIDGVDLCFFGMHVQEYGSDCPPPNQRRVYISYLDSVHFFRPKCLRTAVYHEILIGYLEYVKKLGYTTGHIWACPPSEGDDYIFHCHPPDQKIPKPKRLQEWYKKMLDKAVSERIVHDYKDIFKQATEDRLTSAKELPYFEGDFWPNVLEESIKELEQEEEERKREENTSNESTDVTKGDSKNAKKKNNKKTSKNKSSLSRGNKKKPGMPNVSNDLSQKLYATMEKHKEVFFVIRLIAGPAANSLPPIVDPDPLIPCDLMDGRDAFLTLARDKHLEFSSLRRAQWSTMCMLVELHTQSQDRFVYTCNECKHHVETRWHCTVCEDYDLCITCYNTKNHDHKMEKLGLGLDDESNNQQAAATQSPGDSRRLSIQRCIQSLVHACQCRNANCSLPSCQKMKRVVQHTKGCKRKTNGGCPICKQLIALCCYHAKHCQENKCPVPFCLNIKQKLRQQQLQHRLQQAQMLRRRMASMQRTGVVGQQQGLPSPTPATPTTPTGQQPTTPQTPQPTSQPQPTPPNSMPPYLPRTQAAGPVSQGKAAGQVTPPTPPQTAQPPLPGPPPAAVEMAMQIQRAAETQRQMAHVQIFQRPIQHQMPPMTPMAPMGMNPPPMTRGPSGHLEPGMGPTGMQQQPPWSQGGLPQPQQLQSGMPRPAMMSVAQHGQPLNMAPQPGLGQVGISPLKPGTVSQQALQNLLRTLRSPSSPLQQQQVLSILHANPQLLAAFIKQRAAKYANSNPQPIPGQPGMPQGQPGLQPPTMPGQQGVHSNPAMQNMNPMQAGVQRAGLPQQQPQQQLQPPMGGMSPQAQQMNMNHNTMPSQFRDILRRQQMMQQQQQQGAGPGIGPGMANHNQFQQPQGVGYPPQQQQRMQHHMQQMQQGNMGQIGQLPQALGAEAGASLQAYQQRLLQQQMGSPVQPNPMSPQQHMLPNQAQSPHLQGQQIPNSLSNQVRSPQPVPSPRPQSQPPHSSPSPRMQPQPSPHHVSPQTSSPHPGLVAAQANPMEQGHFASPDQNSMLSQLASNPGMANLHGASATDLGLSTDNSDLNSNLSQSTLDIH

Row | SMILES | Dmax [%] | DC50 [nM]
1 | CC(C)c1cc(-c2cccc3cc(-c4ccc(C(=O)NCc5ccc(-c6cnn(C7CCC(=O)NC7=O)c6)cc5)nc4)ncc23)cc2c1n(C)c(=O)n2C (stereo not shown) [Example A33, N-(4-(1-(2,6-Dioxopiperidin-3-yl)-1H-pyrazol-4-yl)benzyl)-5-(8-(7-isopropyl-1,3-dimethyl-2-oxo-2,3-dihydro-1H-benzo[d]imidazol-5-yl)isoquinolin-3-yl)picolinamide] | < 20 | > 1000
2 | Cc1cc(-c2ccc(N(C)c3cc(C(C)C)c4c(c3)n(C)c(=O)n4C)cn2)cnc1C(=O)NCC#Cc1cc(NC2CCC(=O)NC2=O)nn1C (stereo not shown) [Example A154, N-(3-(3-((2,6-dioxo-piperidin-3-yl)amino)-1-methyl-1H-pyrazol-5-yl)prop-2-yn-1-yl)-5-((7-isopropyl-1,3-dimethyl-2-oxo-2,3-dihydro-1H-benzo [d]imidazol-5-yl) (methyl)amino)-5′-methyl-[2,3′-bipyridine]-6′-carboxamide] | 60 to 79 | 10 to 99
3 | Cc1cc(-c2ccc(N(C)c3cc(C(C)C)c4c(c3)n(C)c(=O)n4C)cc2C(F)(F)F)cnc1C(=O)NCC#Cc1cccc(NC2CCC(=O)NC2=O)c1 (stereo not shown) [Example A48, N-(3-(3-((2,6-dioxopiperidin-3-yl)amino)phenyl)prop-2-yn-1-yl)-5-(4-((7-isopropyl-1,3-dimethyl-2-oxo-2,3-dihydro-1H-benzo [d]imidazol-5-yl)(methyl)amino)-2-(trifluoromethyl)phenyl)-3-methylpicolinamide] | 60 to 79 | 10 to 99
4 | CCc1cc(N2CCOc3cc(-c4ccc(C(=O)NCC#Cc5ccc6occ(C7CCC(=O)NC7=O)c6c5)nc4)c(F)cc32)c2cc(C)c(=O)n(C)c2c1 (stereo not shown) [Example B149, N-(3-(3-(2,6-dioxopiperidin-3-yl)benzofuran-5-yl)prop-2-yn-1-yl)-5-(4-(7-ethyl-1,3-dimethyl-2-oxo-1,2-dihydroquinolin-5-yl)-6-fluoro-3,4-dihydro-2H-benzo[b][1,4]oxazin-7-yl)picolinamide] | > 80 | 1 to 9.9
5 | CN1CCN(c2ccc3c(c2)n(C)c(=O)n3C)c2cnc(-c3ccc(C(=O)NCC#Cc4cc5c(C6CCC(=O)NC6=O)nccc5o4)nc3)nc21 (stereo not shown) [Example A245, 5-(5-(1,3-dimethyl-2-oxo-2,3-dihydro-1H-benzo[d]imidazol-5-yl)-8-methyl-5,6,7,8-tetrahydropteridin-2-yl)-N-(3-(4-(2,6-dioxopiperidin-3-yl)furo[3,2-c]pyridin-2-yl)prop-2-yn-1-yl) picolinamide] | > 80 | < 1
6 | Cc1cc(-c2ncc(N(C)c3cc(C(C)C)c4c(c3)n(C)c(=O)n4C)cc2F)cnc1C(=O)NCC#Cc1cccc(NC2CCC(=O)NC2=O)c1 (stereo not shown) [Example A47, N-(3-(3-((2,6-dioxopiperidin-3-yl)amino)phenyl)prop-2-yn-1-yl)-3-fluoro-5-((7-isopropyl-1,3-dimethyl-2-oxo-2,3-dihydro-1H-benzo [d]imidazol-5-yl)(methyl)amino)-5′-methyl-[2,3′-bipyridine]-6′-carboxamide] | > 80 | 10 to 99
7 | Cc1cc(-c2ncc(N(C)c3cc(N4CCOCC4)c4oc(=O)n(C)c4c3)cn2)cnc1C(=O)NCC#Cc1ccc2occ(C3CCC(=O)NC3=O)c2c1 (stereo not shown) [Example A80, N-(3-(3-(2,6-dioxo-piperidin-3-yl)benzofuran-5-yl)prop-2-yn-1-yl)-3-methyl-5-(5-(methyl (3-methyl-7-morpholino-2-oxo-2,3-dihydrobenzo [d]oxazol-5-yl)amino)pyrimidin-2-yl)picolinamide] | < 20 | > 1000
8 | Cc1cc2c(N3CCOc4cc(-c5ccc(C(=O)NCC#Cc6ccc7occ(C8CCC(=O)NC8=O)c7c6)nc5)c(F)cc43)cc(C3CCOCC3)cc2n(C)c1=O (stereo not shown) [Example B99, 5-(4-(1,3-dimethyl-2-oxo-7-(tetrahydro-2H-pyran-4-yl)-1,2-dihydroquinolin-5-yl)-6-fluoro-3,4-dihydro-2H-benzo[b][1,4]oxazin-7-yl)-N-(3-(3-(2,6-dioxopiperidin-3-yl)benzofuran-5-yl)prop-2-yn-1-yl)picolinamide] | > 80 | 1 to 9.9
